Test results from US10646489B2, “Compositions and methods for increasing energy metabolism” (NuSirt Sciences, Inc., priority 2012, dated 2020).

Assays:
Type in all cases: cell-based
[1] = system: C2C12 myotubes; experiment: Glucose utilization (extracellular acidification response to glucose injection) in C2C12 myotubes / muscle cells; settings: C2C12 myotubes; leucine alone
Method: Glucose utilization was measured as extracellular acidification response to glucose injection. *p=0.04. […] Treatment with 0.5 mM leucine corresponds to a circulating level of the same molarity achieved by administering about 1,125 mg of dietary leucine to a human subject. Treatment with 0.25 mM leucine corresponds to a circulating level of the same molarity achieved by administering about 300 mg of dietary leucine to a human subject.

[2] = system: C2C12 myotubes; experiment: Fatty acid oxidation (O2 consumption response to palmitate injection) in C2C12 myotubes / muscle cells; settings: C2C12 myotubes; sildenafil 1 nM (change from baseline) or leucine 0.5 mM alone
Method: Fatty acid oxidation was measured as O2 consumption response to palmitate injection and is expressed as % change from pre-injection baseline. […] Data expressed as % change from control value. *p=0.013; **p=0.015. The output of the pathways can be measured using one or more methods, disclosed herein and/or known in the art. […] Mitochondrial biogenesis can be measured using a mitochondrial probe by using fluorescence. AMPK activity can be determined by measuring AMPK phosphorylation via an ELISA assay or by Western blot. Sirt1 activity can be determined by measuring deacetylation of a substrate, which can be detected using a fluorophore. […] Treatment with 0.5 mM leucine corresponds to a circulating level of the same molarity achieved by administering about 1,125 mg of dietary leucine to a human subject. Treatment with 0.25 mM leucine corresponds to a circulating level of the same molarity achieved by administering about 300 mg of dietary leucine to a human subject.

[3] = system: 3T3-L1 adipocytes; experiment: Fatty acid oxidation in 3T3-L1 adipocytes / adipocytes; settings: 3T3-L1 adipocytes; leucine 0.5 mM or HMB 5 μM alone; p<0.05
Description: Data expressed as % change from control value.*p<0.05. The output of the pathways can be measured using one or more methods, disclosed herein and/or known in the art. […] Mitochondrial biogenesis can be measured using a mitochondrial probe by using fluorescence. AMPK activity can be determined by measuring AMPK phosphorylation via an ELISA assay or by Western blot. Sirt1 activity can be determined by measuring deacetylation of a substrate, which can be detected using a fluorophore. […] Treatment with 0.5 mM leucine corresponds to a circulating level of the same molarity achieved by administering about 1,125 mg of dietary leucine to a human subject. Treatment with 0.25 mM leucine corresponds to a circulating level of the same molarity achieved by administering about 300 mg of dietary leucine to a human subject.

leucine
glucose utilization, agent alone [1]: 9.3% | fatty acid oxidation, agent alone [2]: 73% | fatty acid oxidation, agent alone [3]: 27%
